Results: US20120058989A1, “ANTIBACTERIAL FLUOROQUINOLONE ANALOGS” (Achaogen, Inc., priority 2008, published 2012)

What was measured:
Assay in all cases: MIC, CLSI broth microdilution
Type in all cases: cell-based
[1] = test system: A. baumannii AABA1009 (Fluoroquinolone-resistant); settings: Table 2
Procedure: (§1) Minimum inhibitory concentrations (MIC) were determined by reference Clinical and Laboratory Standards Institute (CLSI) broth microdilution methods per M7-A7 [2006]. Quality control ranges utilizing E. coli ATCC 25922, P. aeruginosa ATCC 27853 and S. aureus ATCC 29213, and interpretive criteria for comparator agents were as published in CLSI M100-S17 [2007]. Briefly, serial two-fold dilutions of the test compounds were prepared at 2× concentration in Mueller Hinton Broth. The compound dilutions were mixed in 96-well assay plates in a 1:1 ratio with bacterial inoculum. The inoculum was prepared by suspension of a colony from an agar plate that was prepared the previous day. Bacteria were suspended in sterile saline and added to each assay plate to obtain a final concentration of 5×10^5 CFU/mL. The plates were incubated at 35° C. for 20 hours in ambient air.

[2] = test system: A. baumannii AABA1065 (Fluoroquinolone-susceptible); settings: Table 2
Procedure: as §1

[3] = test system: E. coli AECO001 (Fluoroquinolone susceptible, ATCC25922); settings: Table 2, 35° C., 20 hours
Procedure: as §1

[4] = test system: E. coli AECO066 (Fluoroquinolone-resistant); settings: Table 2
Procedure: as §1

[5] = test system: P. aeruginosa APAE001 (Fluoroquinolone-susceptible, ATCC27853); settings: Table 2
Procedure: as §1

[6] = test system: P. aeruginosa APAE054 (Fluoroquinolone-resistant); settings: Table 2
Procedure: as §1

[7] = test system: S. aureus ASAU001 (Fluoroquinolone-susceptible, ATCC29213); settings: Table 2
Procedure: as §1

[8] = test system: S. aureus ASAU1031 (Fluoroquinolone-resistant); settings: Table 2
Procedure: as §1

[9] = test system: S. pneumoniae ASPN001 (Fluoroquinolone-susceptible, ATCC49619); settings: Table 2
Procedure: as §1

[10] = test system: S. pneumoniae ASPN1027 (Fluoroquinolone-resistant); settings: Table 2
Procedure: as §1

| SMILES | MIC AABA 1009 [1] | MIC AABA 1065 [2] | MIC AECO 001 [3] | MIC AECO 066 [4] | MIC APAE 001 [5] | MIC APAE 054 [6] | MIC ASAU 001 [7] | MIC ASAU 1031 [8] | MIC ASPN 001 [9] | MIC ASPN 1027 [10] |
| --- | --- | --- | --- | --- | --- | --- | --- | --- | --- | --- |
| O=C(O)c1cn(C2CC2)c2c3c(c(F)cc2c1=O)N1C[C@H](O)C[C@H]1CC=C3 [18/6, (7aR,9R)-4-Cyclopropyl-12-fluoro-9-hydroxy-1-oxo-4,7,7a,8,9,10-hexahydro-1H-pyrrolo[1′,2′:1,7]azepino-[2,3-h]quinoline-2-carboxylic acid] | C (MIC's of greater than 8.0 μg/mL = C) | B (MIC's of greater than 1.0 μg/mL to 8.0 μg/mL = B) | A (MIC's of 1.0 μg/mL or less = A) | C (MIC's of greater than 8.0 μg/mL = C) | C (MIC's of greater than 8.0 μg/mL = C) | C (MIC's of greater than 8.0 μg/mL = C) | A (MIC's of 1.0 μg/mL or less = A) | B (MIC's of greater than 1.0 μg/mL to 8.0 μg/mL = B) | A (MIC's of 1.0 μg/mL or less = A) | C (MIC's of greater than 8.0 μg/mL = C) |
| O=C(O)c1cn(C2CC2)c2c3c(c(F)cc2c1=O)N1C[C@H](O)C[C@H]1CCC3 [18/8, (7aR,9R)-4-Cyclopropyl-12-fluoro-9-hydroxy-1-oxo-4,5,6,7,7a,8,9,10-octahydro-1H-pyrrolo-[1′,2′:1,7]aze-pino[2,3-h]quinoline-2-carboxylic acid] | C (MIC's of greater than 8.0 μg/mL = C) | B (MIC's of greater than 1.0 μg/mL to 8.0 μg/mL = B) | A (MIC's of 1.0 μg/mL or less = A) | C (MIC's of greater than 8.0 μg/mL = C) | C (MIC's of greater than 8.0 μg/mL = C) | C (MIC's of greater than 8.0 μg/mL = C) | A (MIC's of 1.0 μg/mL or less = A) | B (MIC's of greater than 1.0 μg/mL to 8.0 μg/mL = B) | A (MIC's of 1.0 μg/mL or less = A) | C (MIC's of greater than 8.0 μg/mL = C) |
| O=C1C[C@H]2CC=Cc3c(c(F)cc4c(=O)c(C(=O)O)cn(C5CC5)c34)N2C1 [18/10, (7aR)-4-Cyclopropyl-12-fluoro-1,9-dioxo-4,7,7a,8,9,10-hexahydro-1H-pyrrolo[1′,2′:1,7]azepino[2,3-h]quino-line-2-carboxylic acid] | C (MIC's of greater than 8.0 μg/mL = C) | C (MIC's of greater than 8.0 μg/mL = C) | B (MIC's of greater than 1.0 μg/mL to 8.0 μg/mL = B) | C (MIC's of greater than 8.0 μg/mL = C) | C (MIC's of greater than 8.0 μg/mL = C) | C (MIC's of greater than 8.0 μg/mL = C) | A (MIC's of 1.0 μg/mL or less = A) | C (MIC's of greater than 8.0 μg/mL = C) | B (MIC's of greater than 1.0 μg/mL to 8.0 μg/mL = B) | C (MIC's of greater than 8.0 μg/mL = C) |
| O=C(O)c1cn(C2CC2)c2c3c(c(F)cc2c1=O)N1CC(=NO)C[C@H]1CC=C3 [18/11, (7aR,9E)-4-Cyclopropyl-12-fluoro-9-(hydroxyimino)-1-oxo-4,7,7a,8,9,10-hexahydro-1H-pyrrolo[1′,2′:1,7]aze-pino[2,3-h]quinoline-2-carboxylic acid] | C (MIC's of greater than 8.0 μg/mL = C) | A (MIC's of 1.0 μg/mL or less = A) | A (MIC's of 1.0 μg/mL or less = A) | C (MIC's of greater than 8.0 μg/mL = C) | B (MIC's of greater than 1.0 μg/mL to 8.0 μg/mL = B) | C (MIC's of greater than 8.0 μg/mL = C) | A (MIC's of 1.0 μg/mL or less = A) | A (MIC's of 1.0 μg/mL or less = A) | A (MIC's of 1.0 μg/mL or less = A) | A (MIC's of 1.0 μg/mL or less = A) |
| O=C(O)c1cn(C2CC2)c2c3c(c(F)cc2c1=O)N1CC[C@H](O)[C@H]1CC=C3 [19/5, (7aR,8S)-4-Cyclopropyl-12-fluoro-8-hydroxy-1-oxo-4,7,7a,8,9,10-hexahydro-1H-pyrrolo[1′,2′:1,7]azepino[2,3-h]quinoline-2-carboxylic acid] | C (MIC's of greater than 8.0 μg/mL = C) | B (MIC's of greater than 1.0 μg/mL to 8.0 μg/mL = B) | B (MIC's of greater than 1.0 μg/mL to 8.0 μg/mL = B) | C (MIC's of greater than 8.0 μg/mL = C) | C (MIC's of greater than 8.0 μg/mL = C) | C (MIC's of greater than 8.0 μg/mL = C) | A (MIC's of 1.0 μg/mL or less = A) | C (MIC's of greater than 8.0 μg/mL = C) | B (MIC's of greater than 1.0 μg/mL to 8.0 μg/mL = B) | C (MIC's of greater than 8.0 μg/mL = C) |
| NC[C@H]1C[C@@H]2CC=Cc3c(c(F)cc4c(=O)c(C(=O)O)cn(C5CC5)c34)N2C1.O=C(O)C(F)(F)F [20/14, (7aS,9R)-9-(Aminomethyl)-4-cyclopropyl-12-fluoro-1-oxo-4,7,7a,8,9,10-hexahydro-1H-pyrrolo[1′,2′:1,7]azepino[2,3-h]quinoline-2-carboxylic acid trifluoroacetate] | C (MIC's of greater than 8.0 μg/mL = C) | A (MIC's of 1.0 μg/mL or less = A) | A (MIC's of 1.0 μg/mL or less = A) | C (MIC's of greater than 8.0 μg/mL = C) | B (MIC's of greater than 1.0 μg/mL to 8.0 μg/mL = B) | C (MIC's of greater than 8.0 μg/mL = C) | A (MIC's of 1.0 μg/mL or less = A) | C (MIC's of greater than 8.0 μg/mL = C) | A (MIC's of 1.0 μg/mL or less = A) | C (MIC's of greater than 8.0 μg/mL = C) |
| NC[C@H]1C[C@@H]2CCCc3c(c(F)cc4c(=O)c(C(=O)O)cn(C5CC5)c34)N2C1.O=C(O)C(F)(F)F [20/16, (7aS,9R)-9-(Aminomethyl)-4-cyclopropyl-12-fluoro-1-oxo-4,5,6,7,7a,8,9,10-octahydro-1H-pyrrolo[1′,2′:1,7]-azepino[2,3-h]quinoline-2-carboxylic acid trifluoroacetate] | C (MIC's of greater than 8.0 μg/mL = C) | A (MIC's of 1.0 μg/mL or less = A) | A (MIC's of 1.0 μg/mL or less = A) | C (MIC's of greater than 8.0 μg/mL = C) | B (MIC's of greater than 1.0 μg/mL to 8.0 μg/mL = B) | C (MIC's of greater than 8.0 μg/mL = C) | A (MIC's of 1.0 μg/mL or less = A) | C (MIC's of greater than 8.0 μg/mL = C) | A (MIC's of 1.0 μg/mL or less = A) | C (MIC's of greater than 8.0 μg/mL = C) |
| O=C(O)c1cn(C2CC2)c2c3c(c(F)cc2c1=O)N1C(=O)CC[C@H]1COC3 [21/9, (3aS)-13-Cyclopropyl-8-fluoro-6,10-dioxo-3a,4,5,6,10,13-hexahydro-1H,3H-pyrrolo[2′,1′:3,4]oxazepino-[5,6-h]quinoline-11-carboxylic acid] | C (MIC's of greater than 8.0 μg/mL = C) | C (MIC's of greater than 8.0 μg/mL = C) | B (MIC's of greater than 1.0 μg/mL to 8.0 μg/mL = B) | C (MIC's of greater than 8.0 μg/mL = C) | C (MIC's of greater than 8.0 μg/mL = C) | C (MIC's of greater than 8.0 μg/mL = C) | B (MIC's of greater than 1.0 μg/mL to 8.0 μg/mL = B) | C (MIC's of greater than 8.0 μg/mL = C) | C (MIC's of greater than 8.0 μg/mL = C) | C (MIC's of greater than 8.0 μg/mL = C) |
| NC[C@@H]1CC2CC=Cc3c(c(F)cc4c(=O)c(C(=O)O)cn(C5CC5)c34)N2C1.O=C(O)C(F)(F)F (stereo partly drawn) [22/17, (9S)-9-(Aminomethyl)-4-cyclopropyl-12-fluoro-1-oxo-4,7,7a,8,9,10-hexahydro-1H-pyrrolo-[1′,2′:1,7]azepino[2,3-h]quinoline-2-carboxylic acid trifluoroacetate] | C (MIC's of greater than 8.0 μg/mL = C) | B (MIC's of greater than 1.0 μg/mL to 8.0 μg/mL = B) | B (MIC's of greater than 1.0 μg/mL to 8.0 μg/mL = B) | C (MIC's of greater than 8.0 μg/mL = C) | B (MIC's of greater than 1.0 μg/mL to 8.0 μg/mL = B) | C (MIC's of greater than 8.0 μg/mL = C) | A (MIC's of 1.0 μg/mL or less = A) | C (MIC's of greater than 8.0 μg/mL = C) | B (MIC's of greater than 1.0 μg/mL to 8.0 μg/mL = B) | C (MIC's of greater than 8.0 μg/mL = C) |
